In ChEMBL document CHEMBL6092220 (J Med Chem, 2024):
pIC50: −log10 of the molar value. The source made the active and inactive calls. The calls are words filed in the database; no cut-off is given here.

What was measured:
[1] = molecular target: T1, Protein cereblon/Signal transducer and activator of transcription 3 (Mus musculus) (UniProt P42227+Q8C7D2); assay: In-vivo PROTAC activity at STAT3/CRBN in female CB17 SCID mouse assessed as reduction in STAT3 level liver at 5 mg/kg, iv measured at 72 hrs by immunobloting analysis; assay type: functional, organism-based; design: scale not given: the % may be the effect or the level left
[2] = molecular target: T2, Protein cereblon/Signal transducer and activator of transcription 1-alpha/beta (Homo sapiens, UniProt P42224+Q96SW2); assay: PROTAC activity at STAT1/CRBN in human MOLM16 cells assessed as reduction in STAT1 level at > 8 uM incubated for 4 hrs by Western blot analysis; assay type: cell-based
[3] = Apparent permeability across basolateral to apical side in human Caco-2 cells; assay type: ADME, cell-based
[4] = molecular target: Protein cereblon/Signal transducer and activator of transcription 3 (Homo sapiens, UniProt P40763+Q96SW2); assay: PROTAC activity at STAT3/CRBN in human MOLM16 cells assessed as reduction in STAT3 level at 340 nM incubated for 4 hrs by Western blot analysis; assay type: cell-based; design: scale not given: the % may be the effect or the level left
[5] = molecular target: T2, Protein cereblon/Signal transducer and activator of transcription 1-alpha/beta; assay: PROTAC activity at STAT1/CRBN in human SU-DHL-1 cells assessed as reduction in STAT1 level upto 40 uM incubated for 20 hrs by Western blot analysis; assay type: cell-based
[6] = Drug concentration in female CB17 SCID mouse plasma at 5 mg/kg, iv measured at 48 hrs by LC-MS/MS analysis; assay type: ADME, organism-based
[7] = Drug concentration in female CB17 SCID mouse plasma at 5 mg/kg, iv measured at 24 hrs by LC-MS/MS analysis; assay type: ADME, organism-based
[8] = molecular target: Signal transducer and activator of transcription 3 (Homo sapiens, UniProt P40763); assay: Binding affinity to STAT3 (unknown origin) by FP assay
[9] = Antitumor activity against human MOLM16 cells xenografted in mouse assessed as tumor regression at 25 mg/kg, iv; assay type: functional, MOLM-16
[10] = Drug concentration in female CB17 SCID mouse liver at 5 mg/kg, iv measured at 24 hrs by LC-MS/MS analysis; assay type: ADME, organism-based; conditions: read-out: Ct
[11] = Drug concentration in female CB17 SCID mouse plasma at 5 mg/kg, iv measured at 1 hr by LC-MS/MS analysis; assay type: ADME, organism-based
[12] = Stability in Non human primate plasma assessed as parent compound remaining at […]; assay type: ADME, cell-free; conditions: read-out: Stability
[13] = molecular target: T1, Protein cereblon/Signal transducer and activator of transcription 3 (Mus musculus); assay: In-vivo PROTAC activity at STAT3/CRBN in female CB17 SCID mouse assessed as reduction STAT3 level spleen at 10 mg/kg, iv measured at 24 hrs by Western blot analysis; assay type: functional, organism-based; design: scale not given: the % may be the effect or the level left
[14] = Stability in dog plasma assessed as half life; assay type: ADME, cell-free, Canis lupus familiaris
[15] = molecular target: Signal transducer and activator of transcription 6 (Homo sapiens, UniProt P42226); assay: Binding affinity to STAT6 (unknown origin) by FP assay
[16] = molecular target: Protein cereblon/Signal transducer and activator of transcription 5B (Homo sapiens) (UniProt P51692+Q96SW2); assay: PROTAC activity at STAT5B/CRBN in human PBMC cells assessed as reduction in STAT5B level upto 40 uM incubated for 20 hrs by Western blot analysis; assay type: cell-based
[17] = AUC (0 to t) in ICR mouse at 5 mg/kg, iv; assay type: ADME, organism-based; conditions: in vivo
[18] = AUC (0 to t) in Beagle dog at 1 mg/kg, iv; assay type: ADME, organism-based, Canis lupus familiaris; conditions: in vivo
[19] = Drug concentration in female CB17 SCID mouse spleen at 5 mg/kg, iv measured at 1 hr by LC-MS/MS analysis; assay type: ADME, organism-based; conditions: read-out: Ct
[20] = Toxicity in mouse at 5 to 20 mg/kg, iv; assay type: organism-based; conditions: in vivo, dose 5-20 mg/kg
[21] = Drug concentration in female CB17 SCID mouse tumor at 5 mg/kg, iv measured at 6 hrs by LC-MS/MS analysis; assay type: ADME, organism-based, Neoplasm; conditions: read-out: Ct
Cytochrome P450 2B6 = Cytochrome P450 2B6 (Homo sapiens, UniProt P20813); assay: Inhibition of CYP2B6 (unknown origin); assay type: ADME
[22] = Cmax in Beagle dog at 1 mg/kg, iv; assay type: ADME, organism-based, Canis lupus familiaris; conditions: in vivo
[23] = molecular target: T3, Protein cereblon/Signal transducer and activator of transcription 2 (Homo sapiens) (UniProt Q96SW2+P52630); assay: PROTAC activity at STAT2/CRBN in human SU-DHL-1 cells assessed as reduction in STAT2 level upto 40 uM incubated for 20 hrs by Western blot analysis; assay type: cell-based
[24] = molecular target: Protein cereblon/Signal transducer and activator of transcription 4 (Homo sapiens, UniProt Q96SW2+Q14765); assay: PROTAC activity at STAT4/CRBN in human SU-DHL-1 cells assessed as reduction in STAT4 level incubated for 20 hrs by Western blot analysis; assay type: cell-based; conditions: dose <= 40.0 µM
[25] = Half life in Beagle dog at 1 mg/kg, iv; assay type: ADME, organism-based, Canis lupus familiaris; conditions: in vivo
[26] = Half life in ICR mouse at 5 mg/kg, iv; assay type: ADME, organism-based; conditions: in vivo
Cytochrome P450 2C9 = Cytochrome P450 2C9 (Homo sapiens, UniProt P11712); assay: Inhibition of CYP2C9 (unknown origin); assay type: ADME
[27] = molecular target: T3, Protein cereblon/Signal transducer and activator of transcription 2 (Homo sapiens); assay: PROTAC activity at STAT2/CRBN in human Pfeiffer cells transfected with STAT3 K658R mutant assessed as reduction in STAT2 level upto 40 uM incubated for 20 hrs by Western blot analysis; assay type: cell-based
[28] = Drug concentration in female CB17 SCID mouse tumor at 5 mg/kg, iv measured at 3 hrs by LC-MS/MS analysis; assay type: ADME, organism-based, Neoplasm; conditions: read-out: Ct
[29] = molecular target: T1, Protein cereblon/Signal transducer and activator of transcription 3 (Mus musculus); assay: In-vivo PROTAC activity at STAT3/CRBN in female CB17 SCID mouse assessed as STAT3 depletion liver at 5 mg/kg, iv measured upto 72 hrs by immunobloting analysis; assay type: functional, organism-based
[30] = Drug concentration in female CB17 SCID mouse liver at 5 mg/kg, iv measured at 3 hrs by LC-MS/MS analysis; assay type: ADME, organism-based; conditions: read-out: Ct
[31] = Stability in rat plasma assessed as parent compound remaining at […]; assay type: ADME, cell-free; conditions: read-out: Stability
[32] = molecular target: T1, Protein cereblon/Signal transducer and activator of transcription 3 (Mus musculus); assay: In-vivo PROTAC activity at STAT3/CRBN in female CB17 SCID mouse assessed as reduction in STAT3 level tumor at 5 mg/kg, iv measured at 72 hrs by immunobloting analysis; assay type: functional, organism-based; design: scale not given: the % may be the effect or the level left
Cytochrome P450 1A2 = Cytochrome P450 1A2 (Homo sapiens, UniProt P05177); assay: Inhibition of CYP1A2 (unknown origin); assay type: ADME
[33] = Drug concentration in female CB17 SCID mouse tumor at 5 mg/kg, iv measured at 1 hr by LC-MS/MS analysis; assay type: ADME, organism-based, Neoplasm; conditions: read-out: Ct
[34] = Stability in mouse plasma assessed as parent compound remaining at […]; assay type: ADME, cell-free; conditions: read-out: Stability
[35] = Half life in Sprague-Dawley rat at 5 mg/kg, iv; assay type: ADME, organism-based; conditions: in vivo
[36] = Drug concentration in female CB17 SCID mouse spleen at 5 mg/kg, iv measured at 72 hrs by LC-MS/MS analysis; assay type: ADME, organism-based; conditions: read-out: Ct
[37] = Stability in dog Hepatocyte assessed as half life; assay type: ADME, cell-based, Canis lupus familiaris; conditions: hepatocytes
[38] = Drug concentration in female CB17 SCID mouse spleen at 5 mg/kg, iv measured at 3 hrs by LC-MS/MS analysis; assay type: ADME, organism-based; conditions: read-out: Ct

T1 sequence (P42227 whole entry, looked up): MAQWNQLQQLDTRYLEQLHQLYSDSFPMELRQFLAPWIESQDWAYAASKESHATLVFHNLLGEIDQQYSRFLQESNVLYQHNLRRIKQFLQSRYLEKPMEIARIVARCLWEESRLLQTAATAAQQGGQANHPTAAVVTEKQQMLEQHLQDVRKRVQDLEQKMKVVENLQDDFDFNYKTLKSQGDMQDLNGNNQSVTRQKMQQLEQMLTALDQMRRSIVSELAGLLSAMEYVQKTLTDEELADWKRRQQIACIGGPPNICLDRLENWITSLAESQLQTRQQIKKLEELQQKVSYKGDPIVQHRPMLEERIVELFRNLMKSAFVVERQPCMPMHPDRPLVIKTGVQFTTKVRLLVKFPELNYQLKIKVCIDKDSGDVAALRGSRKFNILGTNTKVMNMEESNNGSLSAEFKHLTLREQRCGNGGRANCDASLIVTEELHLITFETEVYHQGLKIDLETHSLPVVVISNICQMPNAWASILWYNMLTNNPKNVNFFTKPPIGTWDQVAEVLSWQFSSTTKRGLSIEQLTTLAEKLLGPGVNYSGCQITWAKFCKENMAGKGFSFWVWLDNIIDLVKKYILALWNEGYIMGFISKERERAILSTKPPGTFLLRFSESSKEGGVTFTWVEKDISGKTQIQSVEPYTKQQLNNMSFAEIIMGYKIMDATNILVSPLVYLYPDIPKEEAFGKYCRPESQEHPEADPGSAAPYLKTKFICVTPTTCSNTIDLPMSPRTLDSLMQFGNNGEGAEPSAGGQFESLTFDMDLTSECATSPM
T1 sequence (Q8C7D2 whole entry, looked up): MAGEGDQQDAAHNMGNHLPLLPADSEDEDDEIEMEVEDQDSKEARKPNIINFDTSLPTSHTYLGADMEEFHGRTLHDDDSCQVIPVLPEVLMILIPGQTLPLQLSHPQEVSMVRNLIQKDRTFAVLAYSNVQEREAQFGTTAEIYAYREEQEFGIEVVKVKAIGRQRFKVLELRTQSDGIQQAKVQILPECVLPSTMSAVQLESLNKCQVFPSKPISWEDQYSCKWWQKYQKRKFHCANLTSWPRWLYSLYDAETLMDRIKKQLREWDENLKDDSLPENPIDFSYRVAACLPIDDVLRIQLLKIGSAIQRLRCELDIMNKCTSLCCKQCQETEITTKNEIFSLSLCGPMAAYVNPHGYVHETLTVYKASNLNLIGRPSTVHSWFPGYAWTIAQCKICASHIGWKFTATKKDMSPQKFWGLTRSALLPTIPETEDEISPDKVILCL
T3 sequence (P52630 whole entry, looked up): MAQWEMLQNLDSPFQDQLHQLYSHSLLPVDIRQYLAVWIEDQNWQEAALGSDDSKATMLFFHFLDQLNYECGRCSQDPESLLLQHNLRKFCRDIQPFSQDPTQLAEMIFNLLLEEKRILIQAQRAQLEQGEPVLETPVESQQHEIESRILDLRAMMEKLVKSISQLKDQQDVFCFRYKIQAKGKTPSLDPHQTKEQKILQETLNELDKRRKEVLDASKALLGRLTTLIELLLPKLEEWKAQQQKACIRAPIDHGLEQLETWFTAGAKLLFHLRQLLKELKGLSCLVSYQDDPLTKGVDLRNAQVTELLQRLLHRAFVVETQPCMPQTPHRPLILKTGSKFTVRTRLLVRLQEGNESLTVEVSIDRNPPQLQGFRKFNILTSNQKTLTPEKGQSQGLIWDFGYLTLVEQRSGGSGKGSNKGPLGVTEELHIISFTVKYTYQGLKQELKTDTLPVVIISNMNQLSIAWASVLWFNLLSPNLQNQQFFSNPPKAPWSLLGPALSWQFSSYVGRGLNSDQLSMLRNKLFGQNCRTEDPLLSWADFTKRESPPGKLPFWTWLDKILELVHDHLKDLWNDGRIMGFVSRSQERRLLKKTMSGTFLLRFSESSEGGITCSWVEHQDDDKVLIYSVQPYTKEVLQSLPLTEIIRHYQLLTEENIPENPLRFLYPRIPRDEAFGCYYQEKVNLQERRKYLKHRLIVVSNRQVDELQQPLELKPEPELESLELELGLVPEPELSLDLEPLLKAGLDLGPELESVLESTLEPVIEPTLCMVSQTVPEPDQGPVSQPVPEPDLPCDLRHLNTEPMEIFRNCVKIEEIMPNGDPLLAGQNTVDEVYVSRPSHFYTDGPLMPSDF
T3 sequence (Q96SW2 whole entry, looked up): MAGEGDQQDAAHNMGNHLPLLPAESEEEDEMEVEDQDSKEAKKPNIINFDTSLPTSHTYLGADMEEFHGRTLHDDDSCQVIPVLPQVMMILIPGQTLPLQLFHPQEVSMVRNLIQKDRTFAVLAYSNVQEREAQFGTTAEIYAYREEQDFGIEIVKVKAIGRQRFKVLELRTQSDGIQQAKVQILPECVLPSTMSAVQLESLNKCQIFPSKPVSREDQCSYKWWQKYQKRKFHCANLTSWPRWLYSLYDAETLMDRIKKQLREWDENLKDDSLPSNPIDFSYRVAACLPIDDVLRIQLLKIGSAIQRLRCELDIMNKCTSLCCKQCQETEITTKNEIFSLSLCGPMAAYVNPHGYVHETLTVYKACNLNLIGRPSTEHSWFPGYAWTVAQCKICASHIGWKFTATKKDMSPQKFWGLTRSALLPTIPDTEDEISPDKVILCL
Chain of Signal transducer and activator of transcription 3 (P40763 whole entry): as the sequence (P42227 whole entry, looked up) above, with D760E counted along it
Chain of Signal transducer and activator of transcription 6 (P42226 whole entry): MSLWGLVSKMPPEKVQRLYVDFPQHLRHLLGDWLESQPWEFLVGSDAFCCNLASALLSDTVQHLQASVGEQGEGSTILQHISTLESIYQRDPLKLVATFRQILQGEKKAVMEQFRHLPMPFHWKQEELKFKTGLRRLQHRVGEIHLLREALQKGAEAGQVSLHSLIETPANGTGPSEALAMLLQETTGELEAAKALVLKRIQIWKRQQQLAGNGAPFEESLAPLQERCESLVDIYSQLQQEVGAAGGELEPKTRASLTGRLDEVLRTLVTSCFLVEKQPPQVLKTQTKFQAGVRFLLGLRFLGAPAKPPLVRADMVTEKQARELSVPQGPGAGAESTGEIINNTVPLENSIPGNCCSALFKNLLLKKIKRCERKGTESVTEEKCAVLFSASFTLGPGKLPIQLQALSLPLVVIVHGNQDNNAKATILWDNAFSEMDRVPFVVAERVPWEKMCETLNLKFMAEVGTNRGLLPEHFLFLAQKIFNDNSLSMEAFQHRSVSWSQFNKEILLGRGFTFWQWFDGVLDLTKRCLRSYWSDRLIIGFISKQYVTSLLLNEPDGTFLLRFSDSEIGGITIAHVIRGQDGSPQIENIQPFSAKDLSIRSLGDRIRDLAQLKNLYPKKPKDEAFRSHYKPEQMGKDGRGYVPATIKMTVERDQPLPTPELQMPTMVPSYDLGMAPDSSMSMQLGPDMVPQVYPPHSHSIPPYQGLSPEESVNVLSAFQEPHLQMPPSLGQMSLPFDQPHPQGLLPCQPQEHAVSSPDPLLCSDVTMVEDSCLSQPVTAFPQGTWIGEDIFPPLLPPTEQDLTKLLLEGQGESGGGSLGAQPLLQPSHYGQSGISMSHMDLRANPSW
Chain of Cytochrome P450 2C9 (P11712 whole entry): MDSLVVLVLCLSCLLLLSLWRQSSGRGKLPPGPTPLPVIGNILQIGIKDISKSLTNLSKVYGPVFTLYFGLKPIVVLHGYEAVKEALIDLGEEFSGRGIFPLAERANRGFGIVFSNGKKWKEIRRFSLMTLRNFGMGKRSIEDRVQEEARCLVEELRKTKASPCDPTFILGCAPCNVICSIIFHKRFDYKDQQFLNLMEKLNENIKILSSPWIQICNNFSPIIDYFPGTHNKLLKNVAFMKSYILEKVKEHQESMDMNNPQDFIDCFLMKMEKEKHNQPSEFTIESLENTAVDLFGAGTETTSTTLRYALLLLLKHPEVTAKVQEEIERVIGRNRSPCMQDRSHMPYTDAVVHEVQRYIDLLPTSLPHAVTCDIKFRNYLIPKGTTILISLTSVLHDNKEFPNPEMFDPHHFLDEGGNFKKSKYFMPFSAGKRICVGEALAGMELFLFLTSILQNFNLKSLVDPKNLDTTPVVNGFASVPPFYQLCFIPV
Chain of Protein cereblon/Signal transducer and activator of transcription 3 (P40763 2-770 limits assumed): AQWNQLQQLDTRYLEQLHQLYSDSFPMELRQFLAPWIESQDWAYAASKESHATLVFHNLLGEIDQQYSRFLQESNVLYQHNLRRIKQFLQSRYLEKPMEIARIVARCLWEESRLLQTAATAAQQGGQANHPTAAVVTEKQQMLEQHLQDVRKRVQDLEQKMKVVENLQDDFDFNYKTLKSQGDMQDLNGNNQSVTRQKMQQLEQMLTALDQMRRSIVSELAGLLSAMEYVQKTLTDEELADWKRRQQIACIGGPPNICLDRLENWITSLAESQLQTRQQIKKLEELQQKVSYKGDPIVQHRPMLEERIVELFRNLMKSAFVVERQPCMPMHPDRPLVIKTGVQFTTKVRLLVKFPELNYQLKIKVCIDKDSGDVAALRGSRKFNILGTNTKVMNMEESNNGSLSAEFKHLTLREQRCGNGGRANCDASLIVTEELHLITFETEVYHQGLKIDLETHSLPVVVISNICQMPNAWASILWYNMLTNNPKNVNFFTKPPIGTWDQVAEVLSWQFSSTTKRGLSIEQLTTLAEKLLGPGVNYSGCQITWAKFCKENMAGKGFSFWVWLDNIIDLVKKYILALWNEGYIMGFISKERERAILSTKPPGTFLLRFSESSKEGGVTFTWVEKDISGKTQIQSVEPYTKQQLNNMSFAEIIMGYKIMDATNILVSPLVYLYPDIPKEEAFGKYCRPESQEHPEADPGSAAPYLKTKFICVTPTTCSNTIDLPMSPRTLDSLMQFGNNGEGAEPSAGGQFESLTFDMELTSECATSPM
Chain of Protein cereblon/Signal transducer and activator of transcription 3 (Q96SW2 whole entry partner): as the sequence (Q96SW2 whole entry, looked up) above

Question: With `COC(=O)N1CC[C@H]2CC[C@@H](C(=O)N[C@@H](CCC(N)=O)C(=O)N[C@@H](Cc3ccc(F)c(F)c3)C(=O)N3CCC(CCC#Cc4cccc5c4CN(C4CCC(=O)NC4=O)C5=O)CC3)N2C(=O)[C@@H](NC(=O)c2cc3cc(C(F)(F)P(=O)(O)O)ccc3s2)C1` (stereo partly specified) as the compound, how does the Activity [1] read?
Answer: > 90%

Question: And the Activity [2]?
Answer: Active

Question: And the Papp [3]?
Answer: 0.13 10^-6 cm/s

Question: What about the Activity [4] of the same compound?
Answer: 100%

Question: And the Activity [5]?
Answer: inactive

Question: What about the concentration at 48 h [6] of the same compound?
Answer: 12400 ng/mL

Question: What about the concentration at 24 h [7] of the same compound?
Answer: 17100 ng/mL

Question: What about the pIC50 [8] of the same compound?
Answer: 7.72

Question: What about the Activity [9] of the same compound?
Answer: 100%

Question: And the concentration at 24 h [10]?
Answer: 1250 ng/g

Question: What about the concentration at 1 h [11] of the same compound?
Answer: 47300 ng/mL

Question: And the remaining at 2 h [12]?
Answer: 101%

Question: What about the Activity [13] of the same compound?
Answer: > 90%

Question: What about the t1/2 [14] of the same compound?
Answer: > 2 h

Question: And the pIC50 [15]?
Answer: < 5.00

Question: And the Activity [16]?
Answer: inactive

Question: What about the AUC(0-t) [17] of the same compound?
Answer: 859 µg·h/mL

Question: And the AUC(0-t) [18]?
Answer: 10.7 µg·h/mL

Question: What about the concentration at 1 h [19] of the same compound?
Answer: 2870 ng/g

Question: And the Activity [20]?
Answer: Non-toxic

Question: And the concentration at 6 h [21]?
Answer: 3150 ng/g

Question: What about the pIC50 (Cytochrome P450 2B6) of the same compound?
Answer: < 5.00

Question: What about the Cmax [22] of the same compound?
Answer: 8860 ng/mL

Question: What about the Activity [23] of the same compound?
Answer: inactive

Question: What about the Activity [24] of the same compound?
Answer: Dose-dependent-effect

Question: And the half-life [25]?
Answer: 2.3 h

Question: And the half-life [26]?
Answer: 22.1 h

Question: And the pIC50 (Cytochrome P450 2C9)?
Answer: < 5.00

Question: What about the Activity [27] of the same compound?
Answer: inactive

Question: And the concentration at 3 h [28]?
Answer: 2830 ng/g

Question: What about the Activity [29] of the same compound?
Answer: Active

Question: And the concentration at 3 h [30]?
Answer: 3850 ng/g

Question: And the remaining at 2 h [31]?
Answer: 94%

Question: What about the Activity [32] of the same compound?
Answer: > 90%

Question: What about the pIC50 (Cytochrome P450 1A2) of the same compound?
Answer: < 5.00

Question: What about the concentration at 1 h [33] of the same compound?
Answer: 4810 ng/g

Question: What about the remaining at 2 h [34] of the same compound?
Answer: 101%

Question: What about the half-life [35] of the same compound?
Answer: 1 h

Question: And the concentration at 72 h [36]?
Answer: 568 ng/g

Question: What about the t1/2 [37] of the same compound?
Answer: > 2 h

Question: What about the concentration at 3 h [38] of the same compound?
Answer: 1920 ng/g
